Test results: US6696436B1, “B-homoestra-1,3,5(10)-trienes as modulators of tubulin polymerization” (The United States of America as represented by the …, priority 1999, dated 2004)

Experiments:
tubulin [1] = system: T1, tubulin; assay: Tubulin polymerization inhibition in vitro (turbidity at 350 nm); type: biochemical; conditions: for IC50: 1.0 M glutamate, 10 μM tubulin
T1 construct: other: 1.0 M glutamate, 10 μM tubulin; Effect on tubulin polymerization / microtubule assembly
Protocol: Microtubule assembly is followed in a temperature controlled recording spectrophotometer. For details and a discussion, see R. D'Amato et al., Proc Natl Acad Sci USA, 91:3964-3968 (1994).
A typical reaction mixture, which will have a final reaction volume of […], contains 1.0 M monosodium glutamate (pH 6.6), 1.0 mg/ml (10 μM) tubulin, 1.0 MM MgCl2, 4% (v/v) dimethylsulfoxide, and a compound to be tested at the desired concentration (typically 0.1 to 100 μM). The reaction mixtures are incubated for 15 min. at 37° C. and then chilled on ice. After addition of 10 μl 12.5 mM GTP (and, optionally, 0.33 mg/ml microtubule-associated proteins, or MAPs) to initiate polymerization, each reaction mixture is transferred to a cuvette at 0° C., and a baseline established. At time zero, the temperature controller of the spectrophotometer is set to a target temperature, typically between 25 and 37° C. Microtubule assembly is monitored by observing an increase in turbidity at 350 nm as the temperature of the reaction mixture rises to the set target temperature.
The results are presented in Table 1 as IC50 values (μM) for inhibition of tubulin polymerization. Alternatively, inhibition of microtubule assembly can be detected by transmission electron microscopy, as described in U.S. Pat. No. 5,504,074 which is hereby incorporated by reference in its entirety.

tubulin [2] = system: T2, tubulin; assay: Enhancement of glutamate- or MAP-induced tubulin assembly, turbidimetric curves (FIGS. 4 and 5); type: biochemical
T2 construct: Activity in room temperature assay; other: no polymerization in the absence of drug; other: GTP-only system, critical concentrations
Protocol: In those cases where acceleration of tubulin polymerization is observed, an IC50 value for inhibition of polymerization is of course not derivable. Results for such compounds may be presented in the form of turbidimetric curves, e.g. as presented in FIGS. 4 and 5 for representative compounds 13 and 18.
FIG. 4: Each reaction mixture contained 0.8 M glutamate (pH 6.6), 0.4 mM GTP, 12 μM (1.2 mg/ml) tubulin, 4% (v/v) dimethyl sulfoxide, and compound 13 or 18 as indicated. Baselines were established at 0°, and at time zero the temperature controller was set at 26°. At the time indicated by the dashed line, the temperature controller was set at 0°. A. Curve 1, no drug; curve 2, 2 μM compound 13; curve 3, 5 μM 7; curve 4, 10 μM 7; curve 5, 40 μM 7; curve 6, 40 μM 14. B. Curve 1, no drug; curve 2, 2 μM compound 18; curve 3, 5 μM 18; curve 4, 10 μM 18; curve 5, 40 μM 18.
FIG. 5: Each reaction mixture contained 0.1 M Mes (pH 6.9 with NaOH in 0.5 M stock solution), 0.1 mM GTP, 10 μM (1.0 mg/ml) tubulin, 0.75 mg/ml heat-treated MAPs, 4% dimethyl sulfoxide, and drug as indicated. […] There was no change in turbidity in any reaction mixture. At this point the temperature controller was set at 10°, and subsequent temperature changes, as indicated, were made at the times indicated by the vertical dashed lines. Curve 1, no drug; curve 2, 10 μM paclitaxel; curve 3, 10 μM compound 13; curve 4, 20 μM 7; curve 5, 40 μM 7; curve 6, 10 μM compound 18.

tumor cells = assay: Inhibition of cell growth in the NCI Developmental Therapeutics Program tumor cell screen; type: cell-based; conditions: mean graph midpoint for all cell lines tested
Protocol: The compounds of the invention were tested for inhibition of cell growth in the established tumor cell screen of the National Cancer Institute Developmental Therapeutics Program. See Boyd et al., Drug Dev. Res., 34:91-109 (1995). Results are presented in Table 1 as the “MGM” values (mean graph midpoint, in μM, for all cell lines tested).

Row | Structure (SMILES) | melting point | IC50 (tubulin [1]) | Effect on tubulin polymerization / microtubule assembly (tubulin [1]) | Effect on glutamate- and MAP-induced tubulin assembly (tubulin [2]) | Cytotoxicity (MGM μM) (tumor cells)
1 | CCOc1cc2c(cc1O)CC(=O)CC1C2CCC2(C)C(O)CCC12 (stereo not drawn) [Compound 9, B-Homo-3,170β-dihydroxy-2-ethoxyestra-1,3,5(10)-triene-7-one] | 210 to 212 °C | > 40 µM |  |  | 
2 | CCOc1cc2c(cc1O)CC(=NNS(=O)(=O)c1ccc(C)cc1)CC1C2CCC2(C)C(O)CCC12 (stereo not drawn) [Compound 10, B-Homo-2-ethoxy-3,17β-dihydroxyestra-1,3,5(10)-triene-7-one toluenesulfonyl-hydrazone] |  | > 40 µM |  |  | 
3 | CCOc1cc2c(cc1O)CCCC1C2CCC2(C)C(O)CCC12 (stereo not drawn) [Compound 11, B-Homo-2-ethoxy-3.17β-estradiol] | 86 to 88 °C | 1.3 µM | inhibit tubulin polymerization |  | 
4 | CCOc1cc2c(cc1OC(C)=O)CCCC1C2CCC2(C)C(OC(C)=O)CCC12 (stereo not drawn) [Compound 12, B-Homo-3,17β-diacetoxy-2-ethoxyestra-1,3,5(10)-triene] | 98 to 100 °C | > 40 µM |  |  | 
5 | CCOc1cc2c(cc1O)C(=O)CCC1C2CCC2(C)C(O)CCC12 (stereo not drawn) [Compound 14, B-Homo-2-ethoxy-6-oxoestra-1,3,5(10)-trien-3,17β-diol] |  | > 40 µM |  | inactive | 
6 | CCOc1cc2c(cc1OC(C)=O)C(=O)CCC1C2CCC2(C)C(O)CCC12 (stereo not drawn) [Compound 19, B-Homo-3-Acetoxy-2-ethoxy-17β-hydroxyestra-1,3,5(10)-trien-6-one] |  | > 40 µM |  | inactive | 
7 | CCOc1cc2c(cc1O)C(=NO)C[C@@H]1[C@@H]2CC[C@]2(C)[C@@H](OC(C)=O)CC[C@@H]12 [Compound 27, 17β-Acetoxy-2-ethoxy-6-hydroximinoestra-1,3,5(10)-triene-3-ol] | 226 to 227 °C | > 40 µM |  |  | 0.567 µM
8 | CCOc1cc2c(cc1O)NC(=O)CC1C2CCC2(C)C(O)CCC12 (stereo not drawn) [Compound 29, B-Homo-6-aza-2-ethoxy-3,17β-dihydroxyestra-1,3,5(10)-trien-7-one] | 222 to 223 °C | 4 µM | inhibit tubulin polymerization |  | 16.2 µM
9 | CCOc1cc2c(cc1O)NCCC1C2CCC2(C)C(O)CCC12 (stereo not drawn) [Compound 30, B-Homo-6-aza-2-ethoxyestra-1,3,5(10)-triene-3,17β-diol] |  | > 40 µM |  |  | 49.0 µM
10 | CCOc1cc2c(cc1OC(C)=O)N(C(C)=O)CCC1C2CCC2(C)C(OC(C)=O)CCC12 (stereo not drawn) [Compound 31, B-Homo-6-acetyl-6-aza-3,17β-diacetoxy-2-ethoxyestra-1,3,5(10)-triene] |  | > 40 µM |  |  | 38.0 µM
11 | CCOc1cc2c(cc1O)N(C(C)=O)CCC1C2CCC2(C)C(O)CCC12 (stereo not drawn) [Compound 32, B-Homo-6-acetyl-6-aza-2-ethoxyestra-1,3,5(10)-triene-3,17β-diol] | 189 to 191 °C | 25 µM | inhibit tubulin polymerization |  | 35.5 µM
12 | CCOc1cc2c(cc1O)N(CC)CCC1C2CCC2(C)C(O)CCC12 (stereo not drawn) [Compound 33, B-Homo-6-aza-2-ethoxy-6-ethylestra-1,3,5(10)-triene-3,17β-diol] |  | > 40 µM |  |  | 50.1 µM
